Data taken from patent US20110160280A1, “CANCER-RELATED GENES, CDCA5, EPHA7, STK31 AND WDHD1” (Oncotherapy Science, Inc., priority 2007, published 2011).

How the values were obtained:
A549 cells [1] = assay: RNA interference assay (oligo based): colony formation and MTT assays; type: cell-based, human
LC319 cells = assay: as above; type: cell-based, human
Method: (§1) Small interfering RNA (siRNA) duplexes (Dharmacon, Inc., Lafayette, Colo.) (600 pM) were transfected into lung-cancer cell lines LC319 and A549 for CDCA5; NCI-H520 and SBC-5 for EPHA7; LC319 for WDHD1, and esophageal cancer cell line TE9 for WDHD1 using 30 μl of Lipofectamine 2000 (Invitrogen, Carlsbad, Calif.) following the manufacturer's protocol. The transfected cells were cultured for 7 days, and the number of colonies was counted by Giemsa staining, and viability of cells was evaluated by 3-(4,5-dimethylthiazol-2-yl)-2,5-diphenyltetrazolium bromide (MTT) assay (cell counting kit-8 solution; Dojindo Laboratories, Kumanoto, Japan), at 7 days after transfection. To confirm suppression of gene expression, semiquantitative RT-PCR was carried out with synthesized primers described above.

TE9 cells = assay: as above; type: cell-based, human
Method: as §1

WDHD1 = assay: RNA interference assay: WDHD1 knockdown by RT-PCR; type: cell-based, human; settings: A549, LC319 and TE9 cells
Method: Total RNA was extracted from cultured cells using Trizol reagent (Life Technologies, Inc. Gaithersburg, Md.) according to the manufacturer's protocol. Extracted RNAs were treated with DNase I (Nippon Gene, Tokyo, Japan) and reversely-transcribed using oligo (dT) primer and SuperScript II. The primer sets for amplification were as follows:
as §1

A549 cells [2] = assay: Flow cytometry (cell cycle) after si-WDHD1; type: cell-based, human
Method: Cells were collected in PBS, and fixed in 70% cold ethanol for 30 minutes. After treatment with 100 μg/mL RNase (Sigma/Aldrich, St. Louis, Mo.), the cells were stained with 50 μg/mL propidium iodide (Sigma/Aldrich, St.) in PBS. Flow cytometry was done on a Becton Dickinson FACScan and analyzed by ModFit software (Verity Software House, Inc., Topsham, Me.). The cells selected from at least 20,000 ungated cells were analyzed for DNA content.

A549 cells [3] = assay: Time-lapse imaging (live cell imaging) after siRNA for WDHD1; type: cell-based, human; settings: control cells divided about every 10 hours
Method: Cells were grown on a 35 mm glass-bottom dish in phenol red-free Dulbecco's modified Eagle's medium containing 10% fetal bovine serum (FBS). Cells were transfected with siRNA and subjected to time-lapse imaging using a computer-assisted fluorescence microscope (Olympus, LCV100) equipped with an objective lens (Olympus, UAPO 40×/340 N.A.=0.90), a halogen lamp, a red LED (620 nm), a CCD camera (Olympus, DP30), differential interference contrast (DIC) optical components, and interference filters. For DIC imaging, the red LED was used with a filter cube containing an analyzer. Image acquisition and analysis were performed by using MetaMorph 6.13 software (Universal Imaging, Media, Pa.).

mitotic cells = assay: Immunocytochemical analysis of mitotic cells after siRNA for WDHD1; type: cell-based; settings: control si-LUC: normal metaphase figures
Method: Cultured cells were washed twice with PBS(−), fixed in 4% formaldehyde solution for 30 min at room temperature and then rendered permeable with PBS(−) containing 0.1% Triton X-100 for 3 min at room temperature. Nonspecific binding was blocked by Casblock (ZYMED, San Francisco, Calif.) for 10 min at room temperature for CDCA5 and WDHD1, by Casblock (ZYMED, San Francisco, Calif.) for 7 min at room temperature for EPHA7, 3% bovine serum albumin in PBS(−) for 7 min at room temperature for STK31. Cells were then incubated for 60 min (for CDCA5, EPHA7 or STK31) or 10 min (for WDHD1) at room temperature with primary antibodies diluted in PBS containing 3% BSA. After being washed with PBS(−), the cells were stained by a donkey anti-rabbit secondary antibody conjugated to Alexa488 (Molecular Probes) (for CDCA5 and EPHA7) or FITC-conjugated secondary antibody (Santa Cruz Biotechnology, Santa Cruz, Calif.) (for STK31 and WDHD1) at 1:1,000 dilutions for 60 min at room temperature. After another wash with PBS(−), each specimen was mounted with Vectashield (Vector Laboratories, Inc., Burlingame, Calif.) containing 4′,6-diamidino-2-phenylindole and visualized with Spectral Confocal Scanning Systems (TSC SP2 AOBS; Leica Microsystems, Wetzlar, Germany).

[4] = synchronized A549 cells after cell cycle release

5′-GGUAAUACGUGGACUCCUA UU-3′ (GGUAAUACGUGGACUCCUAUU; listed as RNA, chemistry not given here) [si-WDHD1-#2]
number of A549 cells (MTT and colony-formation assays), siRNA against WDHD1 (A549 cells [1]): drastic reduction in the number of cells
number of LC319 cells (MTT and colony-formation assays), siRNA against WDHD1 (LC319 cells): drastic reduction in the number of cells
number of TE9 cells (MTT and colony-formation assays), siRNA against WDHD1 (TE9 cells): drastic reduction in the number of cells
WDHD1 knockdown effect (RT-PCR) (WDHD1): knockdown effect was confirmed
number of cells in S phase (A549 cells [2]; A549 cells, 24˜72 hours after transfection): continuously decreased
proportion of cells in G0/G1 phase (A549 cells [2]; A549 cells, 48˜72 hours after transfection): increased
number of cells in G0/G1 phase (A549 cells [2]; [4]): increased
progression of S phase (A549 cells [2]; [4]): delayed
cell division and cell death (time-lapse microscopy) (A549 cells [3]): divided slowly and died shortly after cell division
chromosome congression in mitotic cells (mitotic cells): chromosomes failed to congress at the spindle midzone
